pEC50: −log10 of the molar value. Read-outs that look alike come from different tables or passages of the source.
Legend:
[1] = test system: Myotonic Dystrophy 1 affected patient fibroblasts (Coriel GM04602; 1600 CTG repeats); experiment: DM1 foci reduction assay (EC50 assay; CAG10-Cy3 FISH, foci per nucleus); assay type: cell-based
Procedure, shortened: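 GM04602 DM1 patient fibroblasts (1600 CTG repeats) seeded 24 h, then treated 48 h at 37 °C with an 8-point 1:3 dose series from 3 μM. Cells PFA-fixed, ethanol-permeabilized and hybridized overnight with 5 nM CAG10-Cy3 probe, DAPI counterstained. Imaged at 20×, 4 fields per well, as average foci per nucleus.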

[2] = test system: F35T cells; experiment: Foci reduction in FECD (CAG10-Cy3 FISH, foci per nucleus); assay type: cell-based
Method: F35T cells were cultured in media containing Opti-MEM (ThermoFisher) supplemented with 8% FBS, 20 μg/mL ascorbic acid, […] CaCl2, 0.08% chondroitin sulfate, 1×Pen/Strep, 100 μg/mL bovine pituitary extract, 5 ng/mL epidermal growth factor, and 20 ng/mL nerve growth factor. Throughout the culture, cells were maintained in an incubator at 37° C. and 5% CO2. Media was refreshed every 48 hours. Once cells reached adequate confluency, they were harvested and seeded in 96 well plates with a density of 5000 cells per well in 200 μL of the supplemented Opti-MEM media. Cells were returned to the incubator and left to settle for 24 hours at 37° C. and 5% CO2. Cells were then treated in 8-point dose response with compounds or negative controls and incubated for 48 hours at 37° C. and 5% CO2. After treatment, cells were fixed with 4% PFA for 20 minutes at room temperature, followed by permeabilization with 70% ethanol. Cells were incubated at −20° C. for a minimum of 1 hour and maximum of 72 hours, after which the ethanol was removed, and cells were washed with PBS. Cells were rehydrated with 30% formamide and 2×SSC buffer for 10 minutes at room temperature. Cells were then incubated overnight at 37° C. in the hybridization solution containing 30% formamide, 2×SSC, 55 mg/mL dextran sulfate, 2.75 mg/mL bovine serum albumin, 0.2 μg/mL Herring sperm DNA, 1% vanadyl-ribonucleoside complex, and 0.05% 10 μM CAG10-Cy3 probe. Cells were washed twice with 30% formamide in 2×SSC, incubating the cells while shaking with the second wash at 37° C. and 200 rpm for 60 minutes. Cells were stained with 5 mg/mL DAPI 1:1000 in PBS, incubating at room temperature for 5 minutes. Cells were then washed with PBS and sealed with adhesive foil, with each well containing a final volume of 150 μL PBS. Cells were imaged on a Cytation 5 and analyzed on a foci per nucleus basis.

[3] = Homo sapiens, Fibroblast; DM1 patient fibroblasts, 48 h treatment, foci per nucleus; read-out: DM1 EC50, 48 h
[4] = F35T cells, 48 h treatment, foci per nucleus; read-out: FECD EC50, 48 h
[5] = Homo sapiens, Fibroblast; DM1 patient fibroblasts, foci per nucleus, 48 h treatment; read-out: DM1 EC50, 48 h
[6] = F35T cells, foci per nucleus, 48 h treatment; read-out: FECD EC50, 48 h

`CC(=O)N1CCC(C#CC#CC2CCN(C(=O)CCNC(=O)c3nc(NC(=O)c4cc(NC(=O)CCNC(=O)c5nc(NC(=O)CCCNC(=O)c6cc(NC(=O)c7nc(NC(=O)CCNC(=O)c8cc(NC(=O)c9nccn9C)cn8C)cn7C)cn6CCOCCN)cn5C)cn4C)cn3C)CC2)CC1` [Compound B-296] was tested, and the pEC50 [1, 3] was > 7.00 and the pEC50 [2, 4] was > 7.00.
With `CC(=O)NCCCCCCn1cc(NC(=O)c2nc(NC(=O)CCNC(=O)c3cc(NC(=O)c4nccn4C)cn3C)cn2C)cc1C(=O)NCCCC(=O)Nc1cn(C)c(C(=O)NCCC(=O)Nc2cc(C(=O)Nc3cn(C)c(C(=O)NCCC(=O)N4CCC(C#CC#CC5CCN(C(=O)OC(C)(C)C)CC5)CC4)n3)n(C)c2)n1` [Compound B-356] the pEC50 [1, 3] was < 6.00 and the pEC50 [2, 4] was 6.00 to 6.30.
In the case of `CCCNC(=O)CCNC(=O)c1nc(NC(=O)c2cc(NC(=O)CCNC(=O)c3nc(NC(=O)CCCNC(=O)c4cc(NC(=O)c5nc(NC(=O)CCNC(=O)c6cc(NC(=O)c7nccn7C)cn6C)cn5C)cn4CCCCCCN=[N+]=[N-])cn3C)cn2C)cn1C` [Compound B-58], the pEC50 [1, 3] was > 7.00 and the pEC50 [2, 4] was > 7.00.
In the case of `COCCOCCOCCOCCN(CCCCCn1cc(NC(=O)c2nc(NC(=O)CCNC(=O)c3cc(NC(=O)c4nccn4C)cn3C)cn2C)cc1C(=O)NCCCC(=O)Nc1cn(C)c(C(=O)NCCC(=O)Nc2cc(C(=O)Nc3cn(C)c(C(=O)NCCC(=O)NCCOCCOCCOCCN4CCC(C#CC#CC5CCNCC5)CC4)n3)n(C)c2)n1)CCOCCOCCOCCOC` [Compound B-227], the pEC50 [1, 3] was < 6.00 and the pEC50 [2, 4] was < 6.00.
For `Cn1cc(NC(=O)c2nc(NC(=O)CCNC(=O)c3cc(NC(=O)c4nccn4C)cn3C)cn2C)cc1C(=O)NCCCC(=O)Nc1cn(C)c(C(=O)NCCC(=O)Nc2cc(C(=O)Nc3cn(C)c(C(=O)NCCCN4CCCCC4)n3)n(C)c2)n1` [Compound B-208], the pEC50 [1, 3] was 6.30 to 7.00 and the pEC50 [2, 4] was 6.30 to 7.00.
For `CC(Nc1cc(C(=O)NCCC(=O)Nc2cn(C)c(C(=O)Nc3cc(C(=O)NCCCC(=O)Nc4cn(C)c(C(=O)NCCC(=O)Nc5cc(C(=O)Nc6cn(C)c(C(=O)NCCC(=O)NCCOCCOCCOCCOCCOCCOCCOCCOCCOCCOCCN)n6)n(C)c5)n4)n(C)c3)n2)n(C)c1)c1nccn1C` (centres unmarked) [Compound B-81], the pEC50 [1, 3] was < 6.00 and the pEC50 [2, 4] was < 6.00.
For `Cn1cc(NC(=O)c2nc(NC(=O)CCNC(=O)c3cc(NC(=O)c4nccn4C)cn3C)cn2C)cc1C(=O)NCCCC(=O)Nc1cn(C)c(C(=O)NCCC(=O)Nc2cc(C(=O)Nc3cn(C)c(C(=O)NCCC(=O)NCCOCCOc4ccc(N)cc4)n3)n(C)c2)n1` [Compound B-16], the pEC50 [1, 3] was 6.30 to 7.00 and the pEC50 [2, 4] was 6.30 to 7.00.
For `Cn1cc(NC(=O)c2nc(NC(=O)CCNC(=O)c3cc(NC(=O)c4nccn4C)cn3C)cn2C)cc1C(=O)NCCCC(=O)Nc1cn(C)c(C(=O)NCCC(=O)Nc2cc(C(=O)Nc3cn(C)c(C(=O)NCCC(=O)NCCCCN=[N+]=[N-])n3)n(C)c2)n1` [Compound B-45], the pEC50 [1, 3] was > 7.00 and the pEC50 [2, 4] was 6.00 to 6.30.
For `COCCOCCOCCOCCOCCOCCOc1ccc(C#CCNCCCNC(=O)c2nc(NC(=O)c3cc(NC(=O)CCNC(=O)c4nc(NC(=O)CCCNC(=O)c5cc(NC(=O)c6nc(NC(=O)CCNC(=O)c7cc(NC(=O)c8nccn8C)cn7C)cn6C)cn5C)cn4C)cn3C)cn2C)cc1` [Compound B-412], the pEC50 [1, 5] was < 6.00 and the pEC50 [2, 6] was > 7.00.
For `CN(C)C(=NCCCNC(=O)c1nc(NC(=O)c2cc(NC(=O)CCNC(=O)c3nc(NC(=O)CCCNC(=O)c4cc(NC(=O)c5nc(NC(=O)CCNC(=O)c6cc(NC(=O)c7nccn7C)cn6C)cn5C)cn4C)cn3C)cn2C)cn1C)N(C)C` [Compound B-206], the pEC50 [1, 3] was 6.30 to 7.00 and the pEC50 [2, 4] was 6.30 to 7.00.
With `CCCNC(=O)CCNC(=O)c1nc(NC(=O)c2cc(NC(=O)CCNC(=O)c3nc(NC(=O)CCCNC(=O)c4cc(NC(=O)c5nc(NC(=O)CCNC(=O)c6cc(NC(=O)c7nccn7C)cn6C)cn5C)cn4CCCOCCN)cn3C)cn2C)cn1C` [Compound B-301] the pEC50 [1, 3] was 6.30 to 7.00 and the pEC50 [2, 4] was > 7.00.
`CCCNC(=O)CCNC(=O)c1nc(NC(=O)c2cc(NC(=O)CCNC(=O)c3nc(NC(=O)CCCNC(=O)c4cc(NC(=O)c5nc(NC(=O)CCNC(=O)c6cc(NC(=O)c7nc(N=C(N(C)C)N(C)C)cn7C)cn6C)cn5C)cn4C)cn3C)cn2C)cn1C` [Compound B-326] was tested, and the pEC50 [1, 3] was 6.30 to 7.00 and the pEC50 [2, 4] was < 6.00.
In the case of `CCCNC(=O)CCNC(=O)c1nc(NC(=O)c2cc(NC(=O)CCNC(=O)c3nc(NC(=O)CCCNC(=O)c4cc(NC(=O)c5nc(NC(=O)CCNC(=O)c6cc(NC(=O)c7nccn7C)cn6C)cn5C)cn4CCCCC(=O)N(CCOCCOCCOCCOC)CCOCCOCCOCCOC)cn3C)cn2C)cn1C` [Compound B-163], the pEC50 [1, 3] was 6.30 to 7.00 and the pEC50 [2, 4] was 6.30 to 7.00.
For `Cn1cc(NC(=O)c2nc(NC(=O)CCNC(=O)c3cc(NC(=O)c4nccn4C)cn3C)cn2C)cc1C(=O)NCCCC(=O)Nc1cn(C)c(C(=O)NCCC(=O)Nc2cc(C(=O)Nc3cn(C)c(C(=O)NCCCN(CC#Cc4cccc(C(=O)O)c4)CCCN)n3)n(C)c2)n1` [Compound B-383], the pEC50 [1, 3] was < 6.00 and the pEC50 [2, 4] was > 7.00.
`Cn1cc(NC(=O)c2nc(NC(=O)CCNC(=O)c3cc(NC(=O)c4nccn4C)cn3C)cn2C)cc1C(=O)NCCCC(=O)Nc1cn(C)c(C(=O)NCCC(=O)Nc2cc(C(=O)Nc3cn(C)c(C(=O)NCCC(=O)N4CCC(C#CC#CC5CCCCC5)CC4)n3)n(C)c2)n1` [Compound B-385] was tested, and the pEC50 [1, 3] was < 6.00 and the pEC50 [2, 4] was 6.30 to 7.00.
In the case of `CCCNC(=O)CCNC(=O)c1nc(NC(=O)c2cc(NC(=O)CCNC(=O)c3nc(NC(=O)CCCNC(=O)c4cc(NC(=O)c5nc(NC(=O)CCNC(=O)c6cc(NC(=O)c7nccn7C)cn6C)cn5C)cn4CCOCCN)cn3C)cn2C)cn1C` [Compound B-295], the pEC50 [1, 3] was 6.30 to 7.00 and the pEC50 [2, 4] was 6.30 to 7.00.
`Cn1cc(NC(=O)c2nccn2C)cc1C(=O)NCCC(=O)Nc1cn(C)c(C(=O)Nc2cc(C(=O)NCCCC(=O)Nc3cn(C)c(C(=O)NCCC(=O)Nc4cc(C(=O)Nc5cn(C)c(C(=O)NCCC(=O)N6CCC(C#CC#CC7CCNCC7)CC6)n5)n(C)c4)n3)n(CCCOCCN)c2)n1` [Compound B-303] gave a pEC50 [1, 3] of 6.00 to 6.30 and a pEC50 [2, 4] of 6.30 to 7.00.
With `CN(CCCNC(=O)c1cccc(C(=O)OC(C)(C)C)c1)CCCNC(=O)c1nc(NC(=O)c2cc(NC(=O)CCNC(=O)c3nc(NC(=O)CCCNC(=O)c4cc(NC(=O)c5nc(NC(=O)CCNC(=O)c6cc(NC(=O)c7nccn7C)cn6C)cn5C)cn4CCCCCCN=[N+]=[N-])cn3C)cn2C)cn1C` [Compound B-365] the pEC50 [1, 3] was > 7.00 and the pEC50 [2, 4] was 6.30 to 7.00.
`CCCCn1cc(NC(=O)c2nc(NC(=O)CCNC(=O)c3cc(NC(=O)c4nccn4C)cn3C)cn2C)cc1C(=O)NCCCC(=O)Nc1cn(C)c(C(=O)NCCC(=O)Nc2cc(C(=O)Nc3cn(C)c(C(=O)NCCC(=O)N4CCCCC4)n3)n(C)c2)n1` [Compound B-433] was tested, and the pEC50 [1, 5] was > 7.00 and the pEC50 [2, 6] was > 7.00.
For `CCCCCNC(=O)c1nc(NC(=O)c2cc(NC(=O)CCNC(=O)c3nc(NC(=O)CCCNC(=O)c4cc(NC(=O)c5nc(NC(=O)CCNC(=O)c6cc(NC(=O)c7nccn7C)cn6C)cn5C)cn4CCCCCCN=[N+]=[N-])cn3C)cn2C)cn1C` [Compound B-232], the pEC50 [1, 3] was > 7.00 and the pEC50 [2, 4] was > 7.00.
In the case of `Cn1cc(NC(=O)c2nc(NC(=O)CCNC(=O)c3cc(NC(=O)c4nccn4C)cn3C)cn2C)cc1C(=O)NCCCC(=O)Nc1cn(C)c(C(=O)NCCC(=O)Nc2cc(C(=O)Nc3cn(C)c(C(=O)NCCCNCC#Cc4ccc(C(=O)O)cc4)n3)n(C)c2)n1` [Compound B-249], the pEC50 [1, 3] was 6.30 to 7.00 and the pEC50 [2, 4] was > 7.00.
In the case of `CCCNC(=O)c1nc(NC(=O)c2cc(NC(=O)CCNC(=O)c3nc(NC(=O)CC4(CNC(=O)c5cc(NC(=O)c6nc(NC(=O)CCNC(=O)c7cc(NC(=O)c8nccn8C)cn7C)cn6C)cn5C)CNC4)cn3C)cn2C)cn1C` [Compound B-439], the pEC50 [1, 5] was 6.30 to 7.00 and the pEC50 [2, 6] was 6.30 to 7.00.

— patent US20250368628A1, “METHODS AND COMPOUNDS FOR MODULATING INHERITED GENETIC DISEASES” (Design Therapeutics, Inc., priority 2022, published 2025)
